According to patent US12624027B2, “Salts and polymorphic forms of 6-chloro-7-(4-(4-chlorobenzyl)piperazin-1-yl)-2-(1,3-dimethyl-1H-pyrazol-4-yl)-3H-imidazo[4,5-b]pyridine” (ELLIPSES PHARMA LTD, priority 2020, dated 2026):

How the values were obtained:
[1] = target: T1, FLT3 (Homo sapiens, UniProt P36888); details: cited from earlier work
T1 sequence (P36888 27-993): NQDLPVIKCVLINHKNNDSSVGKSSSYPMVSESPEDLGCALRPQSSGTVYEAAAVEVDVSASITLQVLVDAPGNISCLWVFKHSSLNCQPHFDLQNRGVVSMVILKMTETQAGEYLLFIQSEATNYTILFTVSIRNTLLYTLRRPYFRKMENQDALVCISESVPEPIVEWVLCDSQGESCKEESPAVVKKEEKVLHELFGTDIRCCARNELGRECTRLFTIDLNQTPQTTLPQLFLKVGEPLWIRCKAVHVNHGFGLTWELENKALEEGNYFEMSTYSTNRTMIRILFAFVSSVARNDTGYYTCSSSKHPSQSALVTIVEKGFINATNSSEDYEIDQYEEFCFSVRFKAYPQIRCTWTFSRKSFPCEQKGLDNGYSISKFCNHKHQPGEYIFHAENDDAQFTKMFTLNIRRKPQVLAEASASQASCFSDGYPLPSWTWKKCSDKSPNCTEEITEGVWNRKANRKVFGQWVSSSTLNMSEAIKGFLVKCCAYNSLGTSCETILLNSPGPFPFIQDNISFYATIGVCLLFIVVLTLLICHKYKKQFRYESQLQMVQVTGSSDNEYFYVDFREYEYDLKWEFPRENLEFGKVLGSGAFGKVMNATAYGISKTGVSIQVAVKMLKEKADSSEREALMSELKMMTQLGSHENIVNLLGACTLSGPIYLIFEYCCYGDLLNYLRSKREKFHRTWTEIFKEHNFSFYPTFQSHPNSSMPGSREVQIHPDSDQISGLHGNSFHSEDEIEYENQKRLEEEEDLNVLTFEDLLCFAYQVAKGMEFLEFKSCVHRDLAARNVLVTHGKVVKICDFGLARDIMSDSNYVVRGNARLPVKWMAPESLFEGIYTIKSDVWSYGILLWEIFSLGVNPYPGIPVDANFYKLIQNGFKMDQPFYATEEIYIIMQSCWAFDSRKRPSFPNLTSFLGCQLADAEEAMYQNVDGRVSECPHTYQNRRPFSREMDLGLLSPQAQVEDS

[2] = system: cytochrome P450; details: cited from earlier work
[3] = target: Aurora B (Homo sapiens, UniProt Q96GD4); details: cited from earlier work
[4] = target: hERG (Homo sapiens, UniProt Q12809); details: cited from earlier work
[5] = target: T2, Aurora A (Homo sapiens, UniProt O14965); details: cited from earlier work
T2 sequence (O14965 1-403): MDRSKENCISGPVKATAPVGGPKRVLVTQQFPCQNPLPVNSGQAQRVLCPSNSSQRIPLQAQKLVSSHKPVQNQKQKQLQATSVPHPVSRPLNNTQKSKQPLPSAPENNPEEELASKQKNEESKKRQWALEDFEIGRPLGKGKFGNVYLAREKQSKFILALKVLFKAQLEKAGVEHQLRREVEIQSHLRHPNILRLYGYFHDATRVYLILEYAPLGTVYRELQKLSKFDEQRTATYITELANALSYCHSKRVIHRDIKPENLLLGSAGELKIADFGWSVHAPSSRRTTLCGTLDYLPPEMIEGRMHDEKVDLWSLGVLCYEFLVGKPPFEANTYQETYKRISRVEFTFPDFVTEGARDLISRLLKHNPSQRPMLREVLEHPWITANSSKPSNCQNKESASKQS

[6] = target: T3, Aurora C (Homo sapiens, UniProt Q9UQB9); details: cited from earlier work
T3 sequence (Q9UQB9 1-309): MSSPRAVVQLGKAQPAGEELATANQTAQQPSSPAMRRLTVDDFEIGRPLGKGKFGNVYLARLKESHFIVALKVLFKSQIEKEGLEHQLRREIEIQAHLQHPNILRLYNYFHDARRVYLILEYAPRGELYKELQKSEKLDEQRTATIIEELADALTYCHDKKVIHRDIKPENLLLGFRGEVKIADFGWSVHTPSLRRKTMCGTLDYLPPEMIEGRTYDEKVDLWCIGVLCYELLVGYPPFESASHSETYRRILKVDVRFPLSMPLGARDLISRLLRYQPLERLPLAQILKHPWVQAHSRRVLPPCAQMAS

[7] = Thermodynamic solubility assessment in biological media (FaSSIF, FeSSIF, FaSSGF), HPLC of mother liquors; format: physicochemical; details: listed as Compound A free base
Procedure: The thermodynamic solubility of Compound A free base, Compound A fumarate Form 1 and Compound A hemi-fumarate Form 3 was assessed in 3 biological media: Fasted State Simulated Intestinal Fluid (FaSSIF); Fed State Simulated Intestinal Fluid (FeSSIF) and Fasted State Simulated Gastric Fluid (FaSSGF).
The following procedure was carried out. Approximately 10 mg of material was weighed into 3×1.5 mL glass vials. 0.02 mL aliquots of appropriate buffer were added to each vial until a final concentration of 10 mg/mL was obtained. The samples were then filtered via centrifugation and the mother liquors analyzed by HPLC.

Sequence of hERG (Q12809 whole entry): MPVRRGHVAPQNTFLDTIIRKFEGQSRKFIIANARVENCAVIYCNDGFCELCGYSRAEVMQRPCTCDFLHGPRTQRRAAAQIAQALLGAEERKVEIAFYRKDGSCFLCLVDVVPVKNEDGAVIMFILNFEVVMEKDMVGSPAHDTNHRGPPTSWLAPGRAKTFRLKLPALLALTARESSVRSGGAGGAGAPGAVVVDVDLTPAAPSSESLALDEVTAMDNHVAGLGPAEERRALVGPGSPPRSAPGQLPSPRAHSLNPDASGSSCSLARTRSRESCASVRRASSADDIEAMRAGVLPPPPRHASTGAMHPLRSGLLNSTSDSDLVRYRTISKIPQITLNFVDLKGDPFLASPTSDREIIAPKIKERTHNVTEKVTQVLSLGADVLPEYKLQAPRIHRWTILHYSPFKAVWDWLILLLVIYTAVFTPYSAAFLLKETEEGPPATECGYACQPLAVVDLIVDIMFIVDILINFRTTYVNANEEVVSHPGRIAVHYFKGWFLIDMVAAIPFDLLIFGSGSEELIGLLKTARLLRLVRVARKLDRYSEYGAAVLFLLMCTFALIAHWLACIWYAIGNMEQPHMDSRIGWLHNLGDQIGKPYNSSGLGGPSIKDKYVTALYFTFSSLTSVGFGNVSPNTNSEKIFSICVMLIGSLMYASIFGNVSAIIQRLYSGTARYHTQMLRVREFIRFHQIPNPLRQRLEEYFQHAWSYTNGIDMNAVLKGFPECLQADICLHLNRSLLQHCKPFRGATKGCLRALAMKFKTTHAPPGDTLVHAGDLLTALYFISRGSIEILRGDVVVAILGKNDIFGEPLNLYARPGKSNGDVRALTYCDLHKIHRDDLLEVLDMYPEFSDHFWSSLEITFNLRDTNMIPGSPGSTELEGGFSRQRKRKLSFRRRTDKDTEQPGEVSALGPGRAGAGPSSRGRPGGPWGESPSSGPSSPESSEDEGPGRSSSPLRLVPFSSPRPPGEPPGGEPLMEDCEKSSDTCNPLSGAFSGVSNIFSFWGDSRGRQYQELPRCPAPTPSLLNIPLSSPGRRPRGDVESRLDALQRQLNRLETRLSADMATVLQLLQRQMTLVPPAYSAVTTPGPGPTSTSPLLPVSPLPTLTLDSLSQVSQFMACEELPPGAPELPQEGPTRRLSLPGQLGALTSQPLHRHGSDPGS
Sequence of Aurora B (Q96GD4 whole entry): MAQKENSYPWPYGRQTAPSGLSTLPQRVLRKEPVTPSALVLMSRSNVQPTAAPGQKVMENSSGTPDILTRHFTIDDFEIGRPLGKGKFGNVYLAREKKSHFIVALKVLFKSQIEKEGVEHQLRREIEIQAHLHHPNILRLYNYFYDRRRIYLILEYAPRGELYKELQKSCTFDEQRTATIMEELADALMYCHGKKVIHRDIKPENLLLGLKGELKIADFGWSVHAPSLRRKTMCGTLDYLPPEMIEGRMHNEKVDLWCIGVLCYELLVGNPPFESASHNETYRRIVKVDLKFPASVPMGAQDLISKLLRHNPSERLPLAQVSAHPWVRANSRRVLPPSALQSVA

Cc1nn(C)cc1-c1nc2c(N3CCN(Cc4ccc(Cl)cc4)CC3)c(Cl)cnc2[nH]1 [Compound A, 6-chloro-7-(4-(4-chlorobenzyl)piperazin-1-yl)-2-(1,3-dimethyl-1H-pyrazol-4-yl)-3H-imidazo[4,5-b]pyridine]
activity against FLT3 kinase [1]: high activity
interaction with cytochrome P450 activity [2]: minimal interaction
activity against Aurora B kinase [3]: high activity
interaction with hERG [4]: minimal interaction
activity against Aurora A kinase [5]: high activity
activity against Aurora C kinase [6]: high activity
Concentration (thermodynamic solubility) ([7]; FaSSGF pH 1.6): 1500 µg/mL
Concentration (thermodynamic solubility) ([7]; FaSSIF pH 6.5): <100 µg/mL
Concentration (thermodynamic solubility) ([7]; FeSSIF pH 5.0): <100 µg/mL
